# Measurements taken from ChEMBL document CHEMBL1201861, “Genomics of Drug Sensitity in Cancer screening data, Wellcome Trust Sanger Institute”.
# Tests used:
# EGI-1 = assay: cells; type: functional, cell-based; conditions: Homo sapiens;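 further: cell viability readout used to gauge growth inhibition of EGI-1 cells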
# Description: SANGER: Inhibition of human EGI-1 cell growth in a cell viability assay.
# SJRH30 = assay: cells; type: functional, cell-based; conditions: Homo sapiens;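 further: growth inhibition of human SJRH30 cells, read out with a cell viability assay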
# Description: SANGER: Inhibition of human SJRH30 cell growth in a cell viability assay.
# A-427 = assay: cells; type: functional, cell-based; conditions: Homo sapiens;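 further: growth inhibition of human A-427 cells, read out by a cell viability assay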
# Description: SANGER: Inhibition of human A427 cell growth in a cell viability assay.
# HCC38 = assay: cells; type: functional, cell-based; conditions: Homo sapiens;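 further: cell viability assay on the human HCC38 cell line, with IC50 marking the concentration that inhibits cell growth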
# Description: SANGER: Inhibition of human HCC38 cell growth in a cell viability assay.
# RERF-LC-MS = assay: cells; type: functional, cell-based; conditions: Homo sapiens;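 further: growth inhibition of human RERF-LC-MS cells, read out by a cell viability assay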
# Description: SANGER: Inhibition of human RERF-LC-MS cell growth in a cell viability assay.
# CAKI-1 = assay: cells; type: functional, cell-based; conditions: Homo sapiens;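 further: growth inhibition of CAKI-1 cells, measured by a cell viability assay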
# Description: SANGER: Inhibition of human CAKI-1 cell growth in a cell viability assay.
# MDA-MB-453 = assay: cells; type: functional, cell-based; conditions: Homo sapiens
# Description: SANGER: Inhibition of human MDA-MB-453 cell growth in a cell viability assay.
# H-EMC-SS = assay: cells; type: functional, cell-based; conditions: Homo sapiens
# Description: SANGER: Inhibition of human H-EMC-SS cell growth in a cell viability assay.
# MKN-7 = assay: cells; type: functional, cell-based; conditions: Homo sapiens;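 further: growth inhibition of MKN-7 cells, read out with a cell viability assay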
# Description: SANGER: Inhibition of human MKN7 cell growth in a cell viability assay.
# EPLC-272H = assay: cells; type: functional, cell-based; conditions: Homo sapiens
# Description: SANGER: Inhibition of human EPLC-272H cell growth in a cell viability assay.
# VMRC-RCZ = assay: cells; type: functional, cell-based; conditions: Homo sapiens
# Description: SANGER: Inhibition of human VMRC-RCZ cell growth in a cell viability assay.
# NCI-H1666 = assay: cells; type: functional, cell-based; conditions: Homo sapiens;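 further: growth inhibition of the cell line, read out with a cell viability assay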
# Description: SANGER: Inhibition of human NCI-H1666 cell growth in a cell viability assay.
# NCI-H1563 = assay: cells; type: functional, cell-based; conditions: Homo sapiens;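 further: growth inhibition of human NCI-H1563 cells, read out with a cell viability assay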
# Description: SANGER: Inhibition of human NCI-H1563 cell growth in a cell viability assay.
# H9 = assay: cells; type: functional, cell-based; conditions: Homo sapiens
# Description: SANGER: Inhibition of human H9 cell growth in a cell viability assay.
# OAW-42 = assay: cells; type: functional, cell-based; conditions: Homo sapiens;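 further: growth inhibition of OAW-42 cells, read out with a cell viability assay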
# Description: SANGER: Inhibition of human OAW-42 cell growth in a cell viability assay.
# D-423MG = assay: cells; type: functional, cell-based; conditions: Homo sapiens
# Description: SANGER: Inhibition of human D-423MG cell growth in a cell viability assay.
# EW-22 = assay: cells; type: functional, cell-based; conditions: Homo sapiens;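 further: growth inhibition of the EW-22 cell line, measured with a cell viability readout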
# Description: SANGER: Inhibition of human EW-22 cell growth in a cell viability assay.
# TI-73 = assay: cells; type: functional, cell-based; conditions: Homo sapiens;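 further: cell viability assay measuring how much compounds suppress growth of the cultured cell line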
# Description: SANGER: Inhibition of human TI-73 cell growth in a cell viability assay.
# YAPC = assay: cells; type: functional, cell-based; conditions: Homo sapiens;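 further: growth inhibition of YAPC cells, measured with a cell viability assay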
# Description: SANGER: Inhibition of human YAPC cell growth in a cell viability assay.
# ME-180 = assay: cells; type: functional, cell-based; conditions: Homo sapiens;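 further: cell viability assay measuring growth inhibition of ME-180 cells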
# Description: SANGER: Inhibition of human ME-180 cell growth in a cell viability assay.
# BALL-1 = assay: cells; type: functional, cell-based; conditions: Homo sapiens;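 further: growth inhibition of BALL-1 cells, read out with a cell viability assay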
# Description: SANGER: Inhibition of human BALL-1 cell growth in a cell viability assay.
# 647-V = assay: cells; type: functional, cell-based; conditions: Homo sapiens;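 further: growth inhibition of 647-V cells, read out with a cell viability assay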
# Description: SANGER: Inhibition of human 647-V cell growth in a cell viability assay.
# MCF7 = assay: cells; type: functional, cell-based; conditions: Homo sapiens;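 further: growth inhibition of human MCF7 cells, read out with a cell viability assay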
# Description: SANGER: Inhibition of human MCF7 cell growth in a cell viability assay.
# MEL-JUSO = assay: cells; type: functional, cell-based; conditions: Homo sapiens;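 further: growth inhibition of human MEL-JUSO cells, read out with a cell viability assay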
# Description: SANGER: Inhibition of human MEL-JUSO cell growth in a cell viability assay.
# D-566MG = assay: cells; type: functional, cell-based; conditions: Homo sapiens
# U-118-MG = assay: cells; type: functional, cell-based; conditions: Homo sapiens
# Description: SANGER: Inhibition of human U-118-MG cell growth in a cell viability assay.
# NB7 = assay: cells; type: functional, cell-based, Homo sapiens; conditions: Homo sapiens, NB7;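 further: growth inhibition of NB7 cells, read out with a cell viability assay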
# Description: SANGER: Inhibition of human NB7 cell growth in a cell viability assay.
# MDA-MB-175-VII = assay: cells; type: functional, cell-based; conditions: Homo sapiens
# HCC1395 = assay: cells; type: functional, cell-based; conditions: Homo sapiens;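 further: growth inhibition of HCC1395 cells, read out by a cell viability assay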
# Description: SANGER: Inhibition of human HCC1395 cell growth in a cell viability assay.
# CAL-54 = assay: cells; type: functional, cell-based; conditions: Homo sapiens;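 further: growth inhibition of CAL-54 cells, read out by a viability measurement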
# Description: SANGER: Inhibition of human CAL-54 cell growth in a cell viability assay.
# LCLC-97TM1 = assay: cells; type: functional, cell-based; conditions: Homo sapiens;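 further: cell viability assay measuring growth inhibition of human LCLC-97TM1 cells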
# Description: SANGER: Inhibition of human LCLC-97TM1 cell growth in a cell viability assay.
# DK-MG = assay: cells; type: functional, cell-based; conditions: Homo sapiens;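 further: growth inhibition of DK-MG cells, read out with a cell viability assay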
# Description: SANGER: Inhibition of human DK-MG cell growth in a cell viability assay.
# BFTC-909 = assay: cells; type: functional, cell-based; conditions: Homo sapiens
# Description: SANGER: Inhibition of human BFTC-909 cell growth in a cell viability assay.
# RH-18 = assay: cells; type: functional, cell-based; conditions: Homo sapiens, Rh18;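 further: growth inhibition of human RH-18 cells, read out with a cell viability assay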
# Description: SANGER: Inhibition of human RH-18 cell growth in a cell viability assay.
# AN3-CA = assay: cells; type: functional, cell-based; conditions: Homo sapiens;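 further: growth inhibition of human AN3-CA cells measured by a cell viability assay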
# Description: SANGER: Inhibition of human AN3-CA cell growth in a cell viability assay.
# SKG-IIIa = assay: cells; type: functional, cell-based; conditions: Homo sapiens;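 further: cell growth inhibition, read out with a cell viability assay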
# Description: SANGER: Inhibition of human SKG-IIIa cell growth in a cell viability assay.
# BT-20 = assay: cells; type: functional, cell-based; conditions: Homo sapiens;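 further: cell viability assay measuring suppression of growth in human BT-20 cells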
# Description: SANGER: Inhibition of human BT-20 cell growth in a cell viability assay.
# HuP-T3 = assay: cells; type: functional, cell-based; conditions: Homo sapiens;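 further: HuP-T3 cell growth inhibition, read out with a cell viability assay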
# Description: SANGER: Inhibition of human HuP-T3 cell growth in a cell viability assay.
# IGROV-1 = assay: cells; type: functional, cell-based; conditions: Homo sapiens;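 further: reduction of IGROV-1 cell growth, read out with a viability assay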
# Description: SANGER: Inhibition of human IGROV-1 cell growth in a cell viability assay.
# CAL-33 = assay: cells; type: functional, cell-based; conditions: Homo sapiens;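 further: growth inhibition of CAL-33 cells, read out with a cell viability assay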
# Description: SANGER: Inhibition of human CAL-33 cell growth in a cell viability assay.
# 8505C = assay: cells; type: functional, cell-based; conditions: Homo sapiens
# Description: SANGER: Inhibition of human 8505C cell growth in a cell viability assay.
# P12-Ichikawa = assay: cells; type: functional, cell-based; conditions: Homo sapiens
# TGBC11TKB = assay: cells; type: functional, cell-based; conditions: Homo sapiens;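 further: growth inhibition of human TGBC11TKB cells, measured by a cell viability assay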
# Description: SANGER: Inhibition of human TGBC11TKB cell growth in a cell viability assay.
# SNU-475 = assay: cells; type: functional, cell-based; conditions: Homo sapiens
# Description: SANGER: Inhibition of human SNU-475 cell growth in a cell viability assay.
# DV-90 = assay: cells; type: functional, cell-based; conditions: Homo sapiens;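 further: Read-out is a viability assay, with IC50 reflecting the drop in DV-90 cell growth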
# Description: SANGER: Inhibition of human DV-90 cell growth in a cell viability assay.
# BL-41 = assay: cells; type: functional, cell-based; conditions: Homo sapiens;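 further: growth inhibition of human BL-41 cells, read out with a cell viability assay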
# Description: SANGER: Inhibition of human BL-41 cell growth in a cell viability assay.
# NCI-H322M = assay: cells; type: functional, cell-based, Homo sapiens; conditions: Homo sapiens, NCI-H322M;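 further: cell viability assay measuring inhibition of growth of human NCI-H322M cells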
# Description: SANGER: Inhibition of human NCI-H322M cell growth in a cell viability assay.
# CAL-148 = assay: cells; type: functional, cell-based, Homo sapiens; conditions: Homo sapiens, CAL-148
# Description: SANGER: Inhibition of human CAL-148 cell growth in a cell viability assay.
# MES-SA = assay: cells; type: functional, cell-based; conditions: Homo sapiens;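 further: growth inhibition of human MES-SA cells, read out with a cell viability assay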
# Description: SANGER: Inhibition of human MES-SA cell growth in a cell viability assay.
# EW-7 = assay: SANGER: Inhibition of human EW-7 cell growth in a cell viability assay.; type: functional, cell-based
# TT = assay: cells; type: functional, cell-based; conditions: Homo sapiens
# Description: SANGER: Inhibition of human TT cell growth in a cell viability assay.
# CCF-STTG1 = assay: cells; type: functional, cell-based; conditions: Homo sapiens;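 further: growth inhibition of human CCF-STTG1 cells, determined with a cell viability read-out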
# Description: SANGER: Inhibition of human CCF-STTG1 cell growth in a cell viability assay.
# CMK = assay: cells; type: functional, cell-based, Homo sapiens; conditions: Homo sapiens, CMK;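 further: growth inhibition of CMK cells, read out as cell viability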
# Description: SANGER: Inhibition of human CMK cell growth in a cell viability assay.
# CA46 = assay: cells; type: functional, cell-based, Homo sapiens; conditions: Homo sapiens, CA46;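 further: growth inhibition of human CA46 cells, read out by a cell viability assay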
# Description: SANGER: Inhibition of human CA46 cell growth in a cell viability assay.
# DMS-53 = assay: cells; type: functional, cell-based; conditions: Homo sapiens;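 further: cell viability assay measuring growth inhibition of human DMS-53 cells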
# Description: SANGER: Inhibition of human DMS-53 cell growth in a cell viability assay.
# EFE-184 = assay: cells; type: functional, cell-based; conditions: Homo sapiens
# Description: SANGER: Inhibition of human EFE-184 cell growth in a cell viability assay.
# NCI-H2141 = assay: cells; type: functional, cell-based, Homo sapiens; conditions: Homo sapiens, NCI-H2141;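 further: growth inhibition of human NCI-H2141 cells, read out with a cell viability assay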
# Description: SANGER: Inhibition of human NCI-H2141 cell growth in a cell viability assay.
# NCI-H1734 = assay: cells; type: functional, cell-based; conditions: Homo sapiens;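 further: growth inhibition of human NCI-H1734 cells, read out with a cell viability assay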
# Description: SANGER: Inhibition of human NCI-H1734 cell growth in a cell viability assay.
# IPC-298 = assay: SANGER: Inhibition of human IPC-298 cell growth in a cell viability assay.; type: functional, cell-based
# NCI-H2081 = assay: cells; type: functional, cell-based, Homo sapiens; conditions: Homo sapiens, NCI-H2081;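 further: growth inhibition of human NCI-H2081 cells, read out with a cell viability assay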
# Description: SANGER: Inhibition of human NCI-H2081 cell growth in a cell viability assay.
compound,measurement,setting,value
Cc1ccc(-n2nc(C(C)(C)C)cc2NC(=O)Nc2ccc(OCCN3CCOCC3)c3ccccc23)cc1 [DORAMAPIMOD],IC50,EGI-1,> 10000 nM
same,IC50,SJRH30,> 10000 nM
same,IC50,A-427,> 10000 nM
same,IC50,HCC38,> 10000 nM
same,IC50,RERF-LC-MS,> 10000 nM
same,IC50,CAKI-1,> 10000 nM
same,IC50,MDA-MB-453,> 10000 nM
same,IC50,H-EMC-SS,> 10000 nM
same,IC50,MKN-7,> 10000 nM
same,IC50,EPLC-272H,> 10000 nM
same,IC50,VMRC-RCZ,> 10000 nM
same,IC50,NCI-H1666,> 10000 nM
same,IC50,NCI-H1563,> 10000 nM
same,IC50,H9,> 10000 nM
same,IC50,OAW-42,> 10000 nM
same,IC50,D-423MG,> 10000 nM
same,IC50,EW-22,> 10000 nM
same,IC50,TI-73,> 10000 nM
same,IC50,YAPC,> 10000 nM
same,IC50,ME-180,> 10000 nM
same,IC50,BALL-1,> 10000 nM
same,IC50,647-V,> 10000 nM
same,IC50,MCF7,> 10000 nM
same,IC50,MEL-JUSO,> 10000 nM
same,IC50,D-566MG,> 10000 nM
same,IC50,U-118-MG,> 10000 nM
same,IC50,NB7,> 10000 nM
same,IC50,MDA-MB-175-VII,> 10000 nM
same,IC50,HCC1395,> 10000 nM
same,IC50,CAL-54,> 10000 nM
same,IC50,LCLC-97TM1,> 10000 nM
same,IC50,DK-MG,> 10000 nM
same,IC50,BFTC-909,> 10000 nM
same,IC50,RH-18,> 10000 nM
same,IC50,AN3-CA,> 10000 nM
same,IC50,SKG-IIIa,> 10000 nM
same,IC50,BT-20,> 10000 nM
same,IC50,HuP-T3,> 10000 nM
same,IC50,IGROV-1,> 10000 nM
same,IC50,CAL-33,> 10000 nM
same,IC50,8505C,> 10000 nM
same,IC50,P12-Ichikawa,> 10000 nM
same,IC50,TGBC11TKB,> 10000 nM
CN(NC(=O)CC(=O)NN(C)C(=S)c1ccccc1)C(=S)c1ccccc1 [ELESCLOMOL],IC50,EGI-1,8.38 nM
same,IC50,SJRH30,100 nM
same,IC50,A-427,6.07 nM
same,IC50,HCC38,> 200 nM
same,IC50,RERF-LC-MS,8.58 nM
same,IC50,CAKI-1,24.1 nM
same,IC50,MDA-MB-453,34.7 nM
same,IC50,H-EMC-SS,3.68 nM
same,IC50,MKN-7,61 nM
same,IC50,EPLC-272H,29.1 nM
same,IC50,VMRC-RCZ,108 nM
same,IC50,NCI-H1666,> 200 nM
same,IC50,NCI-H1563,4.13 nM
same,IC50,H9,58.1 nM
same,IC50,OAW-42,81.6 nM
same,IC50,D-423MG,12 nM
same,IC50,EW-22,74.7 nM
same,IC50,TI-73,15.2 nM
same,IC50,YAPC,70.3 nM
same,IC50,ME-180,16.2 nM
same,IC50,BALL-1,> 200 nM
same,IC50,647-V,6.9 nM
same,IC50,MCF7,31.4 nM
same,IC50,MEL-JUSO,10.6 nM
same,IC50,D-566MG,15.2 nM
same,IC50,U-118-MG,> 200 nM
same,IC50,NB7,14.4 nM
same,IC50,MDA-MB-175-VII,> 200 nM
same,IC50,HCC1395,8.47 nM
same,IC50,CAL-54,> 200 nM
same,IC50,LCLC-97TM1,> 200 nM
same,IC50,DK-MG,17.1 nM
same,IC50,BFTC-909,63.5 nM
same,IC50,RH-18,74.2 nM
same,IC50,AN3-CA,10.8 nM
same,IC50,SKG-IIIa,49.8 nM
same,IC50,BT-20,35.2 nM
same,IC50,HuP-T3,55.8 nM
same,IC50,IGROV-1,104 nM
same,IC50,CAL-33,22.2 nM
same,IC50,8505C,10.5 nM
same,IC50,P12-Ichikawa,4.04 nM
same,IC50,TGBC11TKB,> 200 nM
Cc1ccc(C(=O)Nc2ccc(CN3CCN(C)CC3)c(C(F)(F)F)c2)cc1C#Cc1cnc2cccnn12 [PONATINIB],IC50,EGI-1,> 512 nM
same,IC50,SNU-475,> 512 nM
same,IC50,SJRH30,> 512 nM
same,IC50,A-427,273 nM
same,IC50,HCC38,> 512 nM
same,IC50,RERF-LC-MS,> 512 nM
same,IC50,CAKI-1,217 nM
same,IC50,MDA-MB-453,> 512 nM
same,IC50,MKN-7,> 512 nM
same,IC50,DV-90,> 512 nM
same,IC50,BL-41,> 512 nM
same,IC50,NCI-H322M,> 512 nM
same,IC50,NCI-H1563,> 512 nM
same,IC50,CAL-148,> 512 nM
same,IC50,OAW-42,> 512 nM
same,IC50,MES-SA,242 nM
same,IC50,EW-7,> 512 nM
same,IC50,TT,> 512 nM
same,IC50,YAPC,> 512 nM
same,IC50,ME-180,> 512 nM
same,IC50,647-V,> 512 nM
same,IC50,MCF7,> 512 nM
same,IC50,MEL-JUSO,> 512 nM
same,IC50,CCF-STTG1,225 nM
same,IC50,U-118-MG,> 512 nM
same,IC50,MDA-MB-175-VII,> 512 nM
same,IC50,HCC1395,> 512 nM
same,IC50,CAL-54,> 512 nM
same,IC50,LCLC-97TM1,462 nM
same,IC50,DK-MG,> 512 nM
same,IC50,CMK,> 512 nM
same,IC50,CA46,175 nM
same,IC50,BFTC-909,> 512 nM
same,IC50,AN3-CA,18.7 nM
same,IC50,SKG-IIIa,> 512 nM
same,IC50,BT-20,> 512 nM
same,IC50,DMS-53,> 512 nM
same,IC50,HuP-T3,> 512 nM
same,IC50,IGROV-1,> 512 nM
same,IC50,EFE-184,> 512 nM
same,IC50,NCI-H2141,> 512 nM
same,IC50,CAL-33,> 512 nM
same,IC50,NCI-H1734,> 512 nM
same,IC50,IPC-298,> 512 nM
same,IC50,8505C,> 512 nM
same,IC50,P12-Ichikawa,> 512 nM
same,IC50,NCI-H2081,> 512 nM
